Assay results published in US9790174B2, “Kinase inhibitors” (Respivert Limited, priority 2013, dated 2017).

How the values were obtained:
[1] = tested on: d-U937 cells; assay: Accumulation of β catenin in d-U937 cells; assay type: cell-based, human; details: relative to Reference Compound at 1 μg/mL
Method: U937 cells, a human monocytic cell line, are differentiated into macrophage-type cells by incubation with PMA (100 ng/mL) for between 48 to 72 hr. The cells are then incubated with either final concentrations of test compound or vehicle for 18 hr. The induction of β-catenin by the test compounds is stopped by replacing the media with 4% formaldehyde solution. Endogenous peroxide activity is neutralised by incubating with quenching buffer (100 μL, 0.1% sodium azide, 1% H2O2 in PBS with 0.05% Tween-20) for 20 min. The cells are washed with washing buffer (200 pt; PBS containing 0.05% Tween-20) and incubated with blocking solution (200 pt; 5% milk in PBS) for 1 hr, re-washed with washing buffer (200 pt) and then incubated overnight with anti-β-catenin antibody solution (50 μL) in 1% BSA/PBS (BD, Oxford, UK).
After washing with washing buffer (3×200 pt; PBS containing 0.05% Tween-20), cells are incubated with a HRP-conjugated secondary antibody solution (100 μL) in 1% BSA/PBS (Dako, Cambridge, UK) and the resultant signal is determined colourimetrically (OD: 450 nm with a reference wavelength of 655 nm) using TMB substrate (50 μL; R&D Systems, Abingdon, UK). This reaction is stopped by addition of 1N H2SO4 solution (50 μL). Cells are then washed with washing buffer and 2% crystal violet solution (50 μL) is applied for 30 min. After washing with washing buffer (3×200 μL), 1% SDS (100 μL) is added to each well and the plates are shaken lightly for 1 hr prior to measuring the absorbance at 595 nm (Varioskan® Flash, Thermo-Fisher Scientific).
The measured OD450-655 readings are corrected for cell number by dividing the OD450-655 by the OD595 readings.

[2] = tested on: intestinal mucosa biopsies from ulcerative colitis patients; assay: Human biopsy assay (cytokine release from intestinal mucosa biopsies); assay type: cell-based; details: 1 μg/mL, 24 hours
Method: Intestinal mucosa biopsies are obtained from the inflamed regions of the colons of IBD patients. The biopsy material is cut into small pieces (2-3 mm) and placed on steel grids in an organ culture chamber at 37° C. in a 5% CO2/95% O2 atmosphere in serum-free media. DMSO control or test compounds at the desired concentration are added to the tissue and incubated for 24 hr in the organ culture chamber. The supernatant is harvested for determination of IL-6, IL-8, IL-1β and TNFα levels by R&D ELISA.

[3] = tested on: endotoxin-induced uveitis; assay: Endotoxin-induced uveitis in rats; assay type: in vivo, Lewis rats; details: rats treated with intravitreal endotoxin LPS
Method: Male, Lewis rats (6-8 weeks old, Charles River UK Limited) are housed in cages of 3 at 19-21° C. with a 12 h light/dark cycle (07:00/19:00) and fed a standard diet of rodent chow and water ad libitum. Non-fasted rats are weighed, individually identified on the tail with a permanent marker, and receive a single intravitreal administration into the right vitreous humor (5 μL dose volume) of 100 ng/animal of LPS (Escherichia coli 0111:B4 prepared in PBS, Sigma Aldrich, UK) using a 32-gauge needle. Untreated rats are injected with PBS. […] Following euthanasia, the right eye of each animal is enucleated and dissected into front (anterior) and back (posterior) sections around the lens. Each section is weighed and homogenised in 500 μL of sterile phosphate buffered saline followed by 20 minutes centrifugation at 12000 rpm at 4° C.

[4] = tested on: TNBS-induced colitis; assay: TNBS-induced colitis in mice; assay type: in vivo, BDF1 mice; details: conducted over 2 days; oral
Method: Non-fasted, 10-12 week old, male BDF1 mice are dosed by oral gavage twice daily with either vehicle (5 mL/kg), reference item (Budesonide 2.5 mg/kg) or test compound (1 or 5 mg/kg) one day before (Day −1) stimulation of the inflammatory response by treatment with 2,4,6-trinitrobenzenesulphonic acid (TNBS) (15 mg/mL in 50% ethanol/50% saline). On Day 0 of the study TNBS (200 μL) is administered intra-colonically via a plastic catheter with BID dosing of the vehicle, reference or test compound continuing for 2 or 4 days. During the study, animals are weighed every day and stool observations are made and recorded as a score, based on stool consistency. At the time of sacrifice on Day 2 (or Day 4), the large intestine is removed and the length and weight recorded. Sections of the colon are taken for histopathology scoring to determine disease severity.

[5] = biological target: B-Raf (Homo sapiens (Human), UniProt P15056); assay: KINOMEscan binding of kinase to standard ligand
Sequence of B-Raf (P15056 whole entry): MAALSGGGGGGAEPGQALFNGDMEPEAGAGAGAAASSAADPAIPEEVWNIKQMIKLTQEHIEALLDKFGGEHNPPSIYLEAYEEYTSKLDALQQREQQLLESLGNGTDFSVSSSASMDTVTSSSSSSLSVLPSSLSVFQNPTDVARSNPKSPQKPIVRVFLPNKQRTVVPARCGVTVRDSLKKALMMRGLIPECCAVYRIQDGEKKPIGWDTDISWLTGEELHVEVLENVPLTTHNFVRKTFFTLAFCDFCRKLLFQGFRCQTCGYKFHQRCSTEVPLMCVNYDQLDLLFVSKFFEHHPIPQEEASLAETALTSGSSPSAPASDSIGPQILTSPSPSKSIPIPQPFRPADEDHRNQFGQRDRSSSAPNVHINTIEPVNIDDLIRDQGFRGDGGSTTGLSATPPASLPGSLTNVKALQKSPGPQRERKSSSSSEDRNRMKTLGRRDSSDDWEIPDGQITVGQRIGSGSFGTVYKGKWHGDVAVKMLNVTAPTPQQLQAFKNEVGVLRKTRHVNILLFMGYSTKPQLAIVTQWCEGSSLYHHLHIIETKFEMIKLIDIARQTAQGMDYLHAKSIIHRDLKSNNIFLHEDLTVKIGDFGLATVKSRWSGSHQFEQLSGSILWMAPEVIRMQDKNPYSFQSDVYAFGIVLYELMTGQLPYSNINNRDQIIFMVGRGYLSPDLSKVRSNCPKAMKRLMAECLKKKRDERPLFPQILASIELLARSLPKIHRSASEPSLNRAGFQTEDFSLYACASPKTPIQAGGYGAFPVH
Method: (§1) Kinase enzyme binding activities of compounds disclosed herein may be determined using a proprietary assay which measures active site-directed competition binding to an immobilized ligand (Fabian, M. A. et al., Nature Biotechnol., 2005, 23:329-336). These assays may be conducted by DiscoverX (formerly Ambit; San Diego, Calif.). The percentage inhibition produced by incubation with a test compound may be calculated relative to the non-inhibited control.

[6] = biological target: B-Raf (V600E) (Homo sapiens (Human), UniProt P15056, V600E); assay: KINOMEscan binding of kinase to standard ligand
Sequence of B-Raf (V600E) (P15056 whole entry V600E): as the sequence (P15056 whole entry) above, with V600E counted along it
Method: as §1

[7] = tested on: Salmonella typhimurium, strains TA98 and TA100; assay: Mutagenicity assessment (bacterial reverse mutation screen); assay type: cell-based; details: TA98 and TA100, presence or absence of S-9 mix
Method: Studies were conducted by Sequani (Ledbury, Herefordshire, UK) to assess compounds of the invention for their ability to induce mutations in two histidine dependent auxotrophic mutants of Salmonella typhimurium, strains TA98 and TA100 in vitro.
The mutation screen was conducted using the plate incorporation method and was performed in both the presence and absence of S-9 mix (a liver post-mitochondrial fraction derived from the livers of Aroclor 1254 treated rats). The bacteria were exposed to test compounds dissolved in dimethylsulphoxide, which solvent was also used as the negative control. The dose levels used were 0.32, 1.6, 8, 40, 200, 1000 or 5000 μg/plate.

[8] = tested on: adoptive transfer colitis; assay: Adoptive transfer in mice; assay type: in vivo, SCID mice; details: for % Inhibition: colon weight:length, induction window between naïve and vehicle animals; for levels of pro-inflammatory cytokines in samples of colon tissue: adoptive transfer model
Method: On Study day 0, female Balb/C mice are terminated and spleens obtained for CD45RB^high cell isolation (Using SCID IBD cell Separation protocol). Approximately 4×10^5 cells/mL CD45RB^high cells are then injected intraperitoneally (100 μL/mouse) into female SCID animals. On study day 14, mice are weighed and randomized into treatment groups based on body weight. On Day 14, compounds are administered BID, via oral gavage, in a peanut oil vehicle at the dose levels outlined below in Tables 6a and 6b and a dose volume of 5 mL/kg. Treatment continues until study day 42, at which point the animals are necropsied 4 hours after the morning administration. The colon length and weight are recorded and used as a secondary endpoint in the study as a measurement of colon oedema. The colon is then divided into six cross-sections, four of which are used for histopathology scoring (primary endpoint) and two are homogenised for cytokine analysis. Data shown is the % inhibition of the induction window between nave animals and vehicle animals, where higher inhibition implies closer to the non-diseased, nave, phenotype.

[9] = tested on: non-mutant kinases; assay: KinomeScan selectivity scores; assay type: binding; details: for number of individual kinase hits S(1): % Ctrl <1; for number of individual kinase hits S(10): % Ctrl <10; for number of individual kinase hits S(35): % Ctrl <35
Method: These assays may be conducted by DiscoverX (formerly Ambit; San Diego, Calif.). The percentage inhibition produced by incubation with a test compound may be calculated relative to the non-inhibited control.

SMILES | cytokine (IL-1β, IL-6 and IL-8) release compared to the DMSO control [2] | cytokine levels in anterior and posterior segments of the eyes [3] | activity in TNBS model of colonic inflammation (histopathology analysis) [4] | effect on the binding of B-Raf to its standard ligand [5] | effect on the binding of B-Raf (V600E) to its standard ligand [6] | increases in revertant colonies [7] | levels of pro-inflammatory cytokines in samples of colon tissue [8] | % β-catenin induction ([1]; test compound 5 μg/mL) | other results
COCCOCCOCCOc1cc(Nc2nccc(Oc3ccc(NC(=O)Nc4cc(C(C)(C)C)cc(NS(=O)(=O)N5CCOCC5)c4OC)c4ccccc34)n2)cc(OC)c1 [83(b), N-(5-(tert-butyl)-2-methoxy-3-(3-(4-((2-((3-methoxy-5-(2-(2-(2-methoxyethoxy)ethoxy)-ethoxy)phenyl)amino)pyrimidin-4-yl)oxy)naphthalen-1-yl)ureido)phenyl)morpholine-4-sulfonamide] |  |  |  |  |  |  |  |  | % β-catenin induction ([1]; test compound 10 μg/mL): −6%
COCCOCCOCCOc1cc(Nc2nccc(Oc3ccc(NC(=O)Nc4cc(C(C)(C)C)cc(NS(C)(=O)=O)c4OC)c4ccccc34)n2)cc(OC)c1 [Example 4, N-(5-(tert-Butyl)-2-methoxy-3-(3-(4-((2-((3-methoxy-5-(2-(2-(2-methoxyethoxy)ethoxy)-ethoxy)phenyl)amino)pyrimidin-4-yl)oxy)naphthalen-1-yl)ureido)phenyl)methanesulfonamide] | significantly inhibited | significantly reduced cytokine levels | displayed substantial activity | did not have any significant effect | did not have any significant effect | no dose-related or statistically significant increases in revertant colonies | significantly reduced levels of pro-inflammatory cytokines |  | % Inhibition ([8]; 0.3 mg/kg BID oral gavage): 62%; % Inhibition ([8]; 1 mg/kg BID oral gavage): 110%
COc1cc(Nc2cc(Oc3ccc(NC(=O)Nc4cc(C(C)(C)C)cc(NS(C)(=O)=O)c4OC)c4ccccc34)ccn2)cc(C(=O)NCCN2CCOCC2)c1 [Example 27, 3-((4-((4-(3-(5-(tert-Butyl)-2-methoxy-3-(methylsulfonamido)phenyl)ureido)naphthalen-1-yl)oxy)pyridin-2-yl)amino)-5-methoxy-N-(2-morpholinoethyl)benzamide] | significantly inhibited | significantly reduced cytokine levels | displayed substantial activity | did not have any significant effect | did not have any significant effect | no dose-related or statistically significant increases in revertant colonies | significantly reduced levels of pro-inflammatory cytokines |  | % Inhibition ([8]; 3 mg/kg BID oral gavage): 99%
C#Cc1cc(Nc2cc(Oc3ccc(NC(=O)Nc4cc(C(C)(C)C)cc(NS(C)(=O)=O)c4OC)c4ccccc34)ccn2)cc(C(=O)NCCOCCOCCOC)c1 [Example 54, 3-((4-((4-(3-(5-(tert-Butyl)-2-methoxy-3-(methylsulfonamido)phenyl)ureido)naphthalen-1-yl)oxy)pyridin-2-yl)amino)-5-ethynyl-N-(2-(2-(2-methoxyethoxy)ethoxy)ethyl)benzamide] |  |  |  |  |  |  |  | 5% | 
C#Cc1cc(Nc2cc(Oc3ccc(NC(=O)Nc4cc(C(C)(C)C)cc(NS(C)(=O)=O)c4OC)c4ccccc34)ccn2)cc(C(=O)N[C@H](C)COCCOCCOC)c1 [Example 68, (R)-3-((4-((4-(3-(5-(tert-Butyl)-2-methoxy-3-(methylsulfonamido)phenyl)ureido)-naphthalen-1-yl)oxy)pyridin-2-yl)amino)-5-ethynyl-N-(1-(2-(2-methoxyethoxy)ethoxy)-propan-2-yl)benzamide] |  |  |  |  |  |  |  | 2% | 
COc1c(NC(=O)Nc2ccc(Oc3ccnc(Nc4ccccc4)c3)c3ccccc23)cc(C(C)(C)C)cc1C(=O)NC1COC1 [Example 75, 5-(tert-Butyl)-2-methoxy-N-(oxetan-3-yl)-3-(3-(4-((2-(phenylamino)pyridin-4-yl)oxy)-naphthalen-1-yl)ureido)benzamide] |  | significantly reduced cytokine levels | displayed substantial activity | did not have any significant effect | did not have any significant effect | no dose-related or statistically significant increases in revertant colonies |  |  | number of individual kinase hits S(1) ([9]; 50 nM): 2; number of individual kinase hits S(10) ([9]; 50 nM): 14; number of individual kinase hits S(35) ([9]; 50 nM): 39; number of individual kinase hits S(1) ([9]; 500 nM): 15; number of individual kinase hits S(10) ([9]; 500 nM): 55; number of individual kinase hits S(35) ([9]; 500 nM): 91; selectivity compared to the Reference Compound ([9]; evidenced by lower selectivity scores): substantially improved selectivities
